# Counter-ions that a name gives are not always drawn.
# Target: interaction between p53 and MDM2 proteins (recombinant GST-tagged MDM2 and p53 peptide) (Homo sapiens, UniProt Q00987)
# Experiment: HTRF assay of inhibition of the p53-MDM2 interaction (GST-MDM2 / biotinylated p53 peptide)
# Format: binding
# Conditions: 90 nM biotinylated p53 peptide, 160 ng/ml GST-MDM2, 37° C. 1 h
# Method: The ability of the compounds to inhibit the interaction between p53 and MDM2 proteins was measured by an HTRF (homogeneous time-resolved fluorescence) assay in which recombinant GST-tagged MDM2 binds to a peptide that resembles the MDM2-interacting region of p53 (Lane et al.). Binding of GST-MDM2 protein and p53-peptide (biotinylated on its N-terminal end) is registered by the FRET (fluorescence resonance energy transfer) between Europium (Eu)-labeled anti-GST antibody and streptavidin-conjugated Allophycocyanin (APC).
# Test is performed in black flat-bottom 384-well plates (Costar) in a total volume of 40 uL containing: 90 nM biotinylated peptide, 160 ng/ml GST-MDM2, 20 nM streptavidin-APC (PerkinElmerWallac), 2 nM Eu-labeled anti-GST-antibody (PerkinElmerWallac), 0.2% bovine serum albumin (BSA), 1 mM dithiothreitol (DTT) and 20 mM […] (TBS) buffer as follows: Add 10 uL of GST-MDM2 (640 ng/ml working solution) in reaction buffer to each well. Add 10 uL diluted compounds (1:5 dilution in reaction buffer) to each well, mix by shaking. Add 20 uL biotinylated p53 peptide (180 nM working solution) in reaction buffer to each well and mix on shaker. Incubate at 37° C. for 1 h. Add 20 uL streptavidin-APC and Eu-anti-GST antibody mixture (6 nM Eu-anti-GST and 60 nM streptavidin-APC working solution) in TBS buffer with 0.2% BSA, shake at room temperature for 30 minutes and read using a TRF-capable plate reader at 665 and 615 nm (Victor 5, Perkin ElmerWallac). If not specified, the reagents were purchased from Sigma Chemical Co.
# Chain of interaction between p53 and MDM2 proteins (recombinant GST-tagged MDM2 and p53 peptide) (Q00987 whole entry): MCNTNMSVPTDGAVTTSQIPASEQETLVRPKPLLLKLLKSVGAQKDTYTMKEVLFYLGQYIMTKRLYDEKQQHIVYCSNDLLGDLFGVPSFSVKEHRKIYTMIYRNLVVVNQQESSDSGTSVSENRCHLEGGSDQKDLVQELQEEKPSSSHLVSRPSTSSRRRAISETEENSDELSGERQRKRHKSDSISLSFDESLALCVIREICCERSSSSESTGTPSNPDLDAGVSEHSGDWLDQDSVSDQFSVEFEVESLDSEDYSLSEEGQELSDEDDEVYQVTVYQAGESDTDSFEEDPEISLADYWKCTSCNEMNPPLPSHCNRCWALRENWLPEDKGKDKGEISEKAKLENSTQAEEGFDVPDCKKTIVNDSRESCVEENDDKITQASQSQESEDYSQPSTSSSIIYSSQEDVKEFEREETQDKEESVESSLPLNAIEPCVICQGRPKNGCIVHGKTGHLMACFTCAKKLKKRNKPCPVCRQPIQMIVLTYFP
row,SMILES,IC50 [nM]
1,"CCOc1cc(C#CC(C)(C)C)ccc1C1=N[C@@H](c2ccc(Cl)cc2)[C@@H](c2ccc(Cl)cc2)N1C(=O)N1CCN(CC(=O)N2CCOCC2)CC1 [Example 405, 2-(4-{(4S,5R)-4,5-Bis-(4-chloro-phenyl)-2-[4-(3,3-dimethyl-but-1-ynyl)-2-ethoxy-phenyl]-4,5-dihydro-imidazole-1-carbonyl}-piperazin-1-yl)-1-morpholin-4-yl-ethanone hydrochloride]",544
2,"CCOc1cc(Cl)c(S(=O)(=O)N2CCCCC2)cc1C1=N[C@@H](c2ccc(Cl)cc2)[C@@H](c2ccc(Cl)cc2)N1C(=O)N1CCN(CC(=O)N2CCOCC2)CC1 [Example 175, 2-{4-[(4S,5R)-2-[4-Chloro-2-ethoxy-5-(piperidine-1-sulfonyl)-phenyl]-4,5-bis-(4-chloro-phenyl)-4,5-dihydro-imidazole-1-carbonyl]-piperazin-1-yl}-1-morpholin-4-yl-ethanone hydrochloride]",5
3,"CCOc1cc(Cl)c(S(=O)(=O)N2CCCC2)cc1C1=N[C@@H](c2ccc(Cl)cc2)[C@@H](c2ccc(Cl)cc2)N1C(=O)N1CCN(CCS(C)(=O)=O)CC1 [Example 174, [(4S,5R)-2-[4-Chloro-2-ethoxy-5-(pyrrolidine-1-sulfonyl)-phenyl]-4,5-bis-(4-chloro-phenyl)-4,5-dihydro-imidazol-1-yl]-[4-(2-methanesulfonyl-ethyl)-piperazin-1-yl]-methanone hydrochloride]",5
4,"CCOc1ccc(S(=O)(=O)N(CCOC)CCOC)cc1C1=NC(c2ccc(Cl)cc2)C(c2ccc(Cl)cc2)N1C(=O)N1CCNC(=O)C1 (stereo not shown) [Example 105, 3-[4,5-Bis-(4-chloro-phenyl)-1-(3-oxo-piperazine-1-carbonyl)-4,5-dihydro-1H-imidazol-2-yl]-4-ethoxy-N,N-bis-(2-methoxy-ethyl)-benzenesulfonamide]",57
5,"CCOc1ccc(S(=O)(=O)NC(C)COC)cc1C1=NC(c2ccc(Cl)cc2)C(c2ccc(Cl)cc2)N1C(=O)N1CCN(CC(=O)NC)CC1 (stereo not shown) [Example 130, 2-(4-{4,5-Bis-(4-chloro-phenyl)-2-[2-ethoxy-5-(2-methoxy-1-methyl-ethylsulfamoyl)-phenyl]-4,5-dihydro-imidazole-1-carbonyl}-piperazin-1-yl)-N-methyl-acetamide]",57

# More lines, in order of falling IC50, values ahead:
row,IC50 [nM],SMILES
1,310,"CCOc1cc(N(C(=O)N2CCNC(=O)C2)S(C)(=O)=O)ccc1C1=N[C@@H](c2ccc(Cl)cc2)[C@@H](c2ccc(Cl)cc2)N1C(=O)N1CCNC(=O)C1 [Example 275, N-{4-[(4S,5R)-4,5-Bis-(4-chloro-phenyl)-1-(3-oxo-piperazine-1-carbonyl)-4,5-dihydro-1H-imidazol-2-yl]-3-ethoxy-phenyl}-N-(3-oxo-piperazine-1-carbonyl)-methanesulfonamide]"
2,160,"CCOc1cc(NC(=O)C(C)(C)C)ccc1C1=N[C@@H](c2ccc(Cl)cc2)[C@@H](c2ccc(Cl)cc2)N1C(=O)N1CCNC(=O)C1 [Example 277, N-{4-[(4S,5R)-4,5-Bis-(4-chloro-phenyl)-1-(3-oxo-piperazine-1-carbonyl)-4,5-dihydro-1H-imidazol-2-yl]-3-ethoxy-phenyl}-2,2-dimethyl-propionamide]"
3,150,"CCOc1cc(Cl)c(C#N)cc1C1=N[C@@H](c2ccc(Cl)cc2)[C@@H](c2ccc(Cl)cc2)N1C(=O)N1CCNC(=O)C1 [Example 234, 5-[(4S,5R)-4,5-Bis-(4-chloro-phenyl)-1-(3-oxo-piperazine-1-carbonyl)-4,5-dihydro-1H-imidazol-2-yl]-2-chloro-4-ethoxy-benzonitrile]"
4,9,"CCOc1cc(Cl)c(S(N)(=O)=O)cc1C1=N[C@@H](c2ccc(Cl)cc2)[C@@H](c2ccc(Cl)cc2)N1C(=O)N1CCN(CC(=O)N2CCOCC2)CC1 [Example 34, 5-{(4S,5R)-4,5-Bis-(4-chloro-phenyl)-1-[4-(2-morpholin-4-yl-2-oxo-ethyl)-piperazine-1-carbonyl]-4,5-dihydro-1H-imidazol-2-yl}-2-chloro-4-ethoxy-benzenesulfonamide]"
5,9,"CCOc1cc(C#N)ccc1C1=N[C@@H](c2ccc(Cl)cc2)[C@@H](c2ccc(Cl)cc2)N1C(=O)N1CCN(CCO)CC1 [Example 63, 4-{(4S,5R)-4,5-Bis-(4-chloro-phenyl)-1-[4-(2-hydroxy-ethyl)-piperazine-1-carbonyl]-4,5-dihydro-1H-imidazol-2-yl}-3-ethoxy-benzonitrile]"

# Source: patent publication US7579368B2, “Cis-imidazolines” (Hoffman-La Roche Inc., priority 2005, dated 2009)
